Data reported in US20220168430A1, “THERAPEUTIC METHODS FOR TREATING HEPATITIS B” (priority 2019, published 2022).
Where two headings read alike, the source gives them in different places.

Key:
HBV genome = experiment: IC 50 of HBV siRNA duplexes (Table A); set-up: species or system Hepatitis B virus; conditions: siRNA duplex
HBsAg = experiment: microbe, parasite or virus in culture; format: cell-based, HBV genotype D; primary human hepatocytes; conditions: Hepatitis B virus; for inhibition at 0.005 µM / inhibition at 0.015 µM / inhibition at 0.044 µM / inhibition at 0.133 µM / inhibition at 0.4 µM: read-out: AVERAGE % INHIBITION, HBsAg, (V) 0.00 μg/mL; for inhibition at 0.005 µM: (VI) 0.005 μM; for inhibition at 0.015 µM: (VI) 0.015 μM; for inhibition at 0.044 µM: (VI) 0.044 μM; for inhibition at 0.133 µM: (VI) 0.133 μM; for inhibition at 0.4 µM: (VI) 0.400 μM; for inhibition at 0.05 µM: (VII) 0.05 μM alone; for inhibition at 0.15 µM: (VII) 0.15 μM alone; for inhibition at 0.44 µM: (VII) 0.44 μM alone; for inhibition at 1.33 µM: (VII) 1.33 μM alone; for inhibition at 4 µM: (VII) 4.00 μM alone
Procedure: (§1) The day PHH seeding date was defined as day 0.
(§2) The PHH were infected with 400 HBV GE/cell of HBV genotype D type HBV on day 1.
(§3) The test articles were further diluted with the culture medium to the final test concentrations.
(§4) All the test articles were further diluted 100 times with the culture medium. The final concentration of DMSO in the culture medium was […].
(§5) The compounds were tested at 7 concentrations, 3-fold dilution, in triplicate.
(§6) Four two-way combinations were performed on a 5×5 matrix, in triplicate plates. Transfection reagent was present in all wells. The culture medium containing the articles were refreshed every 1 or 2 days.
HBsAg in the culture supernatants harvested on days 8 was measured using the HBsAg/ELISA kit (Autobio) according to the manual. The samples were diluted with PBS to get the signal in the range of the standard curve. Percent inhibition of HBsAg was calculated with the formula below:
% Inh. HBsAg=[1−HBsAg quantity of sample/[…] of DMSO control]×100
(§7) Results of double combination studies were analyzed using MacSynergy II software (Prichard and Shipman, 1992).

HBV DNA = HBV DNA in culture supernatants of HBV-infected PHH by qPCR, single agents and double combinations (Examples 1-4); format: cell-based, HBV genotype D; primary human hepatocytes; conditions: Hepatitis B virus; for inhibition at 0.005 µM / inhibition at 0.015 µM / inhibition at 0.044 µM / inhibition at 0.133 µM / inhibition at 0.4 µM: HBV DNA, (V) 0.00 μg/mL; for inhibition at 0.005 µM: (VI) 0.005 μM; for inhibition at 0.015 µM: (VI) 0.015 μM; for inhibition at 0.044 µM: (VI) 0.044 μM; for inhibition at 0.133 µM: (VI) 0.133 μM; for inhibition at 0.4 µM: (VI) 0.400 μM; for EC50: HBV DNA endpoint, PHH, determined in an earlier separate experiment, read-out: EC50; for inhibition at 0.05 µM: (VII) 0.05 μM alone; for inhibition at 0.15 µM: (VII) 0.15 μM alone; for inhibition at 0.44 µM: (VII) 0.44 μM alone; for inhibition at 1.33 µM: (VII) 1.33 μM alone; for inhibition at 4 µM: (VII) 4.00 μM alone
Procedure: as §1, §2, §3, §4, §5, §6
DNA in the culture supernatants harvested on days 8 was isolated with QIAamp 96 DNA Blood Kit (Qiagen-51162). For each sample, 100 μl of each culture supernatant was used to extract DNA. The DNA was eluted with 180 μl of AE. HBV DNA in the culture supernatants was quantified by quatitative PCR using primers and probes outlined in Table 3. Percent inhibition of HBV DNA was calculated with the formula below:
% Inh. HBV DNA=[1−value of sample/AVG. value of Medium control]×100.
as §7

[1] = read-out: AVERAGE % INHIBITION, Exp 1
[2] = read-out: AVERAGE % INHIBITION, Exp 2

## 1m: "double stranded siRNA molecules selected from the group consisting of 1m, 2m, 3m ... 15m" (sense AGGUAUGUUGCCCGUUUGUUU; antisense UUUCCAUACAACGGGCAAACA; chemistry not fully specified; one strand is listed 3' to 5') [Compound 1m]
HBV genome
  IC50: 1.43 nM

## 2m: "double stranded siRNA molecules selected from the group consisting of 1m, 2m, 3m ... 15m" (sense GCUCAGUUUACUAGUGCCAUU; antisense UUCGAGUCAAAUGAUCACGGU; chemistry not fully specified; one strand is listed 3' to 5') [Compound 2m]
HBV genome
  IC50: 0.37 nM

## 3m: "double stranded siRNA molecules selected from the group consisting of 1m, 2m, 3m ... 15m" (sense CCGUGUGCACUUCGCUUCAUU; antisense UUGGCACACGUGAAGCGAAGU; chemistry not fully specified) [Compound 3m]
HBV genome
  IC50: 0.06 nM

## 4m: "double stranded siRNA molecules selected from the group consisting of 1m, 2m, 3m ... 15m" (sense GCUCAGUUUACUAGUGCCAUU; antisense UUCGAGUCAAAUGAUCACGGU; chemistry not fully specified; one strand is listed 3' to 5') [Compound 4m]
HBV genome
  IC50: 0.31 nM

## 5m: "double stranded siRNA molecules selected from the group consisting of 1m, 2m, 3m ... 15m" (sense CCGUGUGCACUUCGCUUCAUU; antisense UUGGCACACGUGAAGCGAAGU; chemistry not fully specified) [Compound 5m]
HBV genome
  IC50: 0.06 nM

## 6m: "double stranded siRNA molecules selected from the group consisting of 1m, 2m, 3m ... 15m" (sense CUGGCUCAGUUUACUAGUGUU; antisense UUGACCGAGUCAAAUGAUCAC; chemistry not fully specified; one strand is listed 3' to 5') [Compound 6m]
HBV genome
  IC50: 0.05 nM

## 8m: "double stranded siRNA molecules selected from the group consisting of 1m, 2m, 3m ... 15m" (sense GCUCAGUUUACUAGUGCCAUU; antisense UUCGAGUCAAAUGAUCACGGU; chemistry not fully specified; one strand is listed 3' to 5') [Compound 8m]
HBV genome
  IC50: 0.24 nM

## 9m: "double stranded siRNA molecules selected from the group consisting of 1m, 2m, 3m ... 15m" (sense AGGUAUGUUGCCCGUUUGUUU; antisense UUUCCAUACAACGGGCAAACA; chemistry not fully specified; one strand is listed 3' to 5') [Compound 9m]
HBV genome
  IC50: 0.13 nM

## 10m: "double stranded siRNA molecules selected from the group consisting of 1m, 2m, 3m ... 15m" (sense GCCGAUCCAUACUGCGGAAUU; antisense UUCGGCUAGGUAUGACGCCUU; chemistry not fully specified; one strand is listed 3' to 5') [Compound 10m]
HBV genome
  IC50: 0.34 nM

## 11m: "double stranded siRNA molecules selected from the group consisting of 1m, 2m, 3m ... 15m" (sense GCCGAUCCAUACUGCGGAAUU; antisense UUCGGCUAGGUAUGACGCCUU; chemistry not fully specified; one strand is listed 3' to 5') [Compound 11m]
HBV genome
  IC50: 0.31 nM

## 12m: "double stranded siRNA molecules selected from the group consisting of 1m, 2m, 3m ... 15m" (sense GCCGAUCCAUACUGCGGAAUU; antisense UUCGGCUAGGUAUGACGCCUU; chemistry not fully specified; one strand is listed 3' to 5') [Compound 12m]
HBV genome
  IC50: 0.16 nM

## COCCCOc1cc2c(nc1OC)-c1cc(=O)c(C(=O)O)cn1[C@H](C(C)C)C2 [(VI)]
HBsAg
  EC50: 13 nM
HBsAg; Experiment 1
  inhibition at 0.005 µM: 19.1%
  inhibition at 0.015 µM: 43.1%
  inhibition at 0.044 µM: 62.2%
  inhibition at 0.133 µM: 74%
  inhibition at 0.4 µM: 81%
HBsAg; Experiment 2
  inhibition at 0.005 µM: 11.9%
  inhibition at 0.015 µM: 38.1%
  inhibition at 0.044 µM: 56.7%
  inhibition at 0.133 µM: 69.7%
  inhibition at 0.4 µM: 77.4%
HBV DNA; Experiment 1
  inhibition at 0.005 µM: 0.64%
  inhibition at 0.015 µM: 6.77%
  inhibition at 0.044 µM: 10.9%
  inhibition at 0.133 µM: 26.7%
  inhibition at 0.4 µM: 21.8%
HBV DNA; Experiment 2
  inhibition at 0.005 µM: 7.21%
  inhibition at 0.015 µM: 13.7%
  inhibition at 0.044 µM: 19.3%
  inhibition at 0.133 µM: 12.8%
  inhibition at 0.4 µM: 27.1%
HBV DNA
  EC50: 6 nM

## Cn1cnc(COC(=O)N[C@H]2CCc3c(C(=O)Nc4ccc(F)c(Cl)c4)ccc(F)c32)n1 [(VII)]
HBsAg
  EC50: > 4000 nM
HBsAg; [1]
  inhibition at 0.05 µM: -14.1%
  inhibition at 0.15 µM: -5.43%
  inhibition at 0.44 µM: -9.81%
  inhibition at 1.33 µM: 29.9%
  inhibition at 4 µM: 49.6%
HBsAg; [2]
  inhibition at 0.05 µM: -3.42%
  inhibition at 0.15 µM: -8.51%
  inhibition at 0.44 µM: 1.73%
  inhibition at 1.33 µM: 29.4%
  inhibition at 4 µM: 48.7%
HBV DNA; Exp 1
  inhibition at 0.05 µM: -22.6%
  inhibition at 0.15 µM: 28.7%
  inhibition at 0.44 µM: 50%
  inhibition at 1.33 µM: 53.9%
  inhibition at 4 µM: 56.2%
HBV DNA; Exp 2
  inhibition at 0.05 µM: -0.21%
  inhibition at 0.15 µM: 16.1%
  inhibition at 0.44 µM: 31.2%
  inhibition at 1.33 µM: 32.9%
  inhibition at 4 µM: 41.3%
HBV DNA
  EC50: 76 nM
